Experimental data published in patent publication US9174979B2, “Phenanthroindolizidine compound and NFκB inhibitor containing same as active ingredient” (KABUSHIKI KAISHA YAKULT HONSHA, priority 2008, dated 2015).

Experiments:
[1] = system: human colon cancer SW480 cells; assay: Inhibitory action on the proliferation of SW480 cells; type: cell-based; conditions: 48 hours culture, TetraColor ONE; for IC50: Homo sapiens, SW480
Method: (§1) The action of the phenanthroindolizidine alkaloid compound of the present invention on the proliferation of human colon cancer SW480 cells, HT-29 cells, and human non-small cell lung cancer A549 cells was studied. The SW480 cells were suspended in a 10% FBS/RPMI1640 and then seeded in a 96-well microplate, followed by culturing in 5% CO2 at 37° C. (2000 cells/well). The A549 cells and the HT-29 cells were each suspended in a DMEM medium containing 10% FBS, 100 U/mL penicillin, and 100 μg/mL streptomycin (10% FBS/DMEM) and a DMEM F-12 HAM medium containing 10% FBS, 100 U/mL penicillin, and 100 μg/mL streptomycin (10% FBS/DMEM F12 HAM), and then seeded in 96-well microplates, followed by culturing in 5% CO2 at 37° C. (1000 cells/well). After an overnight culture, the compound of the present invention was added, followed by further culturing for 48 hours (SW480 cells) and 96 hours (A549 cells and HT-29 cells). After culturing, the number of viable cells was counted using TetraColor ONE (Seikagaku Corporation) in accordance with the attached operating procedure. The results were expressed as the concentration of a test compound needed for 50% inhibition of the proliferation of the cells (IC50).

mice = assay: Animal toxicity test in mice transplanted with Meth A cells; type: in vivo, mouse; conditions: intravenous on days 1, 5, 9, observed for three weeks
Method: Also, the toxicity of known phenanthroindolizidine alkaloid compounds in mice, namely (12aS,13S)-6,7-dimethoxy-9,10,11,12,12a,13-hexahydro-9a-aza-cyclopenta[b]triphenylene-3,13-diol (known compound 1; refer to WO01/023384) and (12aS,13S)-3,6,7-trimethoxy-9,10,11,12,12a,13-hexahydro-9a-aza-cyclopenta[b]triphenylene-13-ol (known compound 2; refer to Planta Med., 2002, 68: 186-188), was simultaneously studied. To a control group, a physiological saline solution as a solvent, was administered.

[2] = system: human colon cancer HT-29 cells; assay: Inhibitory action on the proliferation of HT-29 cells; type: cell-based; conditions: 96 hours culture, TetraColor ONE; for IC50: Homo sapiens, HT-29
Method: as §1

NFκB = NFκB luciferase reporter assay in SW480/NRE-Luc cells stimulated with TNFα; type: cell-based, human; conditions: for IC50: Homo sapiens, SW480, read-out: NFκB inhibitory activity IC50; for NFκB inhibitory activity IC50: SW480/NRE-Luc cells, 50 ng/mL TNFα, luciferase expression
Description: (§2) The action of the phenanthroindolizidine alkaloid compound of the present invention on the NFκB activity was studied in a luciferase assay. Human colon cancer SW480 cells were transfected with pNFκB-Luc Plasmid (Stratagene), which is a reporter vector in which a five-time tandem repeat of the NFκB responsive element (NRE) is integrated into the upstream of the luciferase gene, using Lipofectamine 2000 (Invitrogen Corporation) in accordance with the attached operating procedure. Subsequently, the cells were cultured in an RPMI1640 medium containing 10% FBS, 100 U/mL penicillin, 100 μg/mL streptomycin, and 0.5 mg/mL G418 to produce SW480 cells having the luciferase gene, the expression of which is regulated by NRE, stably introduced therein (SW480/NRE-Luc cells). Likewise, SW480 cells were transfected with pGL3-Control Vector (Promega Corporation), which is a reporter vector in which the SV40 promoter is integrated into the upstream of the luciferase gene, to produce SW480 cells having the luciferase gene, the expression of which is regulated by the SV40 promoter, stably introduced therein (SW480/SV40-Luc cells). The SW480/NRE-Luc cells or the SW480/SV40-Luc cells were suspended in an RPMI1640 medium containing 10% FBS, 100 U/mL penicillin, and 100 μg/mL streptomycin (10% FBS/RPMI1640), and then seeded in a 96-well microplate, followed by culturing under conditions of 5% CO2 and at 37° C. (5000 cells/well). After an overnight culture, the compound of the present invention was added, followed by culturing for one hour. Further, 50 ng/mL TNFα (Sigma-Aldrich Corporation) was added, followed by culturing for four hours. Subsequently, a Steady-Glo Luciferase Assay reagent (Promega Corporation) was added, and the luminescent intensity was detected by SpectraMax M5e (Molecular Devices, Inc.) to measure the intracellular luciferase activity. It is to be noted that the action of the compound of the present invention on the NFκB activity or the SV40 promoter activity was shown as IC50 values (the concentration of a test compound needed for 50% inhibition of the induction of the luciferase expression).

SV40 promoter = SV40 promoter luciferase reporter assay in SW480/SV40-Luc cells; type: cell-based, human; conditions: for IC50: Homo sapiens, SW480, read-out: SV40 promoter inhibitory activity IC50; for SV40 promoter inhibitory activity IC50: SW480/SV40-Luc cells, luciferase expression
Description: as §2

[3] = system: human non-small cell lung cancer A549 cells; assay: Inhibitory action on the proliferation of A549 cells; type: cell-based; conditions: 96 hours culture, TetraColor ONE; for IC50: Homo sapiens, A549
Method: as §1

Molecule | IC50 [1] [µg/mL] | Mortality rate (mice; total dose 25 mg/kg) | Mortality rate (mice; total dose 50 mg/kg) | IC50 [2] [µg/mL] | IC50 (NFκB) [µg/mL] | IC50 (SV40 promoter) [µg/mL] | IC50 [3] [µg/mL] | SW480 proliferation inhibitory action IC50 [1] [µg/mL] | HT-29 proliferation inhibitory action IC50 [2] [µg/mL] | NFκB inhibitory activity IC50 (NFκB) [µg/mL] | SV40 promoter inhibitory activity IC50 (SV40 promoter) [µg/mL] | A549 proliferation inhibitory action IC50 [3] [µg/mL]
COc1cc2c3c(c4ccc(O)cc4c2c(OC)c1OC)[C@H](O)[C@@H]1CCCN1C3.Cl [Compound 1, (12aS,13S)-5,6,7-trimethoxy-9,10,11,12,12a,13-hexahydro-9a-aza-cyclopenta[b]triphenylene-3,13-diol hydrochloride] | 1.97 | 0/5 | 0/5 | 0.637 | 0.668 | > 10 | 0.56 | – | – | – | – | –
Cl.Oc1ccc2c3c(c4ccccc4c2c1)CN1CCC[C@H]1[C@H]3O [Compound 3, (12aS,13S)-9,10,11,12,12a,13-hexahydro-9a-aza-cyclopenta[b]triphenylene-3,13-diol hydrochloride] | 0.405 | 0/5 | 0/5 | 0.14 | 0.173 | > 10 | 0.107 | – | – | – | – | –
COc1cc2c3c(c4ccc(O)cc4c2cc1OC)[C@H](OC(C)=O)[C@@H]1CCCN1C3.Cl [Compound 5, acetic acid(12aS,13S)-3-hydroxy-6,7-dimethoxy-9,10,11,12,12a,13-hexahydro-9a-aza-cyclopenta[b]triphenylene-13-yl ester hydrochloride] | – | 0/5 | 0/5 | – | – | – | – | 0.005 | 0.0023 | 0.027 | >0.1 | 0.0005
COc1cc2c3c(c4ccc(O)cc4c2cc1OC)C(O)C1(C)CCCN1C3.Cl (stereo not drawn) [Compound 6, 6,7-dimethoxy-12a-methyl-9,10,11,12,12a,13-hexahydro-9a-aza-cyclopenta[b]triphenylene-3,13-diol hydrochloride] | 3.12 | 0/5 | 0/5 | 0.839 | 1.92 | > 10 | 0.757 | – | – | – | – | –
Cl.Oc1ccc2c3c(c4cc5c(cc4c2c1)OCO5)CN1CCC[C@H]1[C@H]3O [Compound 8, (12aS,13S)-6,7-methylenedioxy-9,10,11,12,12a,13-hexahydro-9a-aza-cyclopenta[b]triphenylene-3,13-diol hydrochloride] | 0.0267 | 0/5 | 0/5 | 0.0469 | 0.0084 | > 10 | 0.0193 | – | – | – | – | –
CC1(C)Oc2cc3c4c(c5ccc(O)cc5c3cc2O1)[C@H](O)[C@@H]1CCCN1C4.Cl [Compound 9, (12aS,13S)-6,7-isopropylidenedioxy-9,10,11,12,12a,13-hexahydro-9a-aza-cyclopenta[b]triphenylene-3,13-diol hydrochloride] | – | 0/5 | 0/5 | – | – | – | – | 1.955 | 0.184 | 0.5216 | >10 | 0.3502
CCOc1cc2c3c(c4ccc(O)cc4c2cc1OCC)[C@H](O)[C@@H]1CCCN1C3.Cl [Compound 10, (12aS,13S)-6,7-diethoxy-9,10,11,12,12a,13-hexahydro-9a-aza-cyclopenta[b]triphenylene-3,13-diol hydrochloride] | 0.0067 | 0/5 | 0/5 | 0.00047 | 0.0041 | > 0.1 | 0.00027 | – | – | – | – | –
(S)-2-fluoro-6,7-dimethoxy-9,10,11,12,12a,13-hexahydro-9a-aza-cyclopenta[b]triphenylene-3-ol methanesulfonate [Compound 25] | – | – | – | – | – | – | – | 0.0031 | 0.007 | 0.0016 | >1 | 0.0026
